Experimental data reported in patent publication US6262023A, “WD-40 derived peptides and uses thereof” (The Board of Trustees of the Leland Stanford Junior …, priority 1995, dated 2001).

How the values were obtained:
βPKC [1] = assay: βPKC translocation (soluble vs particulate fraction) in Xenopus oocytes; type: cell-based; details: 50 μM peptide microinjected
Description: Insulin causes the translocation of βPKC, but not other PKC isozymes, from a cytosolic form to a membrane-associated form, as evidenced by the relative levels of PKC in the soluble vs. the particulate fraction of oocyte homogenate. To assess the effects of RACK1 WD-40-derived peptides on insulin-induced PKC translocation, 50 nl of a 20 mM NaCl solution containing the indicated peptides were microinjected into Xenopus oocytes. The oocytes were then homogenized, and the relative amount of PKC in the soluble and particulate fractions was assayed. The protocol followed was a modification of a method described by Smith, et al. (1992).
Batches of 50 oocytes were microinjected with either peptide rVI (SEQ ID NO:7; 50 μM; lanes 3, 4), peptide I (SEQ ID NO:1; 50 μM, lanes 7, 8) or injection solution (NaCl 20 mM, lanes 1,2 and 5,6). Homogenates from each batch were prepared 60 minutes after microinjection (lanes 1-4) or 60 minutes after addition of insulin (lanes 5-8). The homogenates were centrifuged at 10,000 g for 3 minutes, the upper layer (containing fat and yolk) was removed, and the remainder was frozen at -70° C. […] The amount of PKC in each fraction was determined by Western blot using anti-βPKC antibodies (1:1000 dilution; Seikagaku Kogyo, Tokyo, Japan). Bound primary antibodies were detected by chemiluminescence as described in Example 3, part C.

δ and εPKC isozymes = assay: PKC isozyme translocation and degradation in cardiac myocytes; type: cell-based, rat; details: peptide introduced into cardiac myocytes
Excerpt: This peptide-induced translocation was followed by degradation of δ and εPKC isozymes.

βPKC [2] = target: βPKC (Rattus norvegicus, UniProt P68403); assay: Sensitivity of βPKC to Arg-C endopeptidase (nicking); type: biochemical; design: All the solutions contained 5 nM rat brain PKC in peptide overlay buffer; from tissue; host or cells: rat brain; details: 2.5 μg/ml PS and 50 μM CaCl2; peptide 10 μM; Arg-C 5 units/ml
Excerpt: Upon activation of PKC, a pseudosubstrate autoinhibitory sequence at the N-terminus of the molecule dissociates from the catalytic site and becomes sensitive to endopeptidase Arg-C (Orr, et al.). In the absence of PKC activators, exposure of the 80 kDa βPKC to endopeptidase Arg-C has no effect on the enzyme (see FIG. 7, lane 1). In the presence of the PKC activators PS, DG and calcium, however, exposure of βPKC to Arg-C results in a "nicking" of the PKC (i.e. limited proteolysis generating a 78 kDa fragment and several small fragments (see FIG. 7, lane 2)). Continued exposure to Arg-C results in the disappearance of βPKC (Orr, et al.). The present experiment tests whether peptides derived from the WD-40 region of RACK1 alter the sensitivity of βPKC to endopeptidase Arg-C.
The methods used to assay Arg-C sensitivity are a modification of methods described by Orr, et al. Rat brain PKC (~5 nM) was incubated at room temperature in 500 μl of 20 mM Tris-HCl buffer (pH 7.5) alone or with Arg-C (5 units/ml) in the presence or absence of the indicated peptides (final concentration 10 μM or as indicated), PS, DG, and calcium (as indicated). 50 μl aliquots were removed into 20 μl of sample buffer during the reaction as indicated (samples in all the lanes were incubated for 30 minutes, except lanes 5, and 6, which were incubated for 5 and 15 minutes, respectively). The samples were boiled for 10 minutes at 80° C. and loaded onto 8% SDS-PAGE. βPKC was detected by Western blot analysis using anti-βPKC antibodies as described in Examples 6 and 8.
PKC was incubated for the indicated time alone (lane 1) or in the presence of Arg-C (lanes 2-9), with DG (0.8 μg/ml), PS (50 μg/ml) and CaCl2 (1 mM; lane 2), with PS (50 μg/ml) and CaCl2 (1 mM; lane 3), with PS (2.5 μg/ml) and CaCl2 (50 μM; lane 4); with PS (2.5 μg/ml), CaCl2 (50 μM) and with either peptide rVI (SEQ ID NO:7; 10 μM; lanes 5-7), control peptide (SEQ ID NO: 9; lane 8) or with peptide I (SEQ ID) NO:1; lane 9).

βPKC (Rattus norvegicus, UniProt P68403), sequence (P68403 whole entry, the tested form may be a part): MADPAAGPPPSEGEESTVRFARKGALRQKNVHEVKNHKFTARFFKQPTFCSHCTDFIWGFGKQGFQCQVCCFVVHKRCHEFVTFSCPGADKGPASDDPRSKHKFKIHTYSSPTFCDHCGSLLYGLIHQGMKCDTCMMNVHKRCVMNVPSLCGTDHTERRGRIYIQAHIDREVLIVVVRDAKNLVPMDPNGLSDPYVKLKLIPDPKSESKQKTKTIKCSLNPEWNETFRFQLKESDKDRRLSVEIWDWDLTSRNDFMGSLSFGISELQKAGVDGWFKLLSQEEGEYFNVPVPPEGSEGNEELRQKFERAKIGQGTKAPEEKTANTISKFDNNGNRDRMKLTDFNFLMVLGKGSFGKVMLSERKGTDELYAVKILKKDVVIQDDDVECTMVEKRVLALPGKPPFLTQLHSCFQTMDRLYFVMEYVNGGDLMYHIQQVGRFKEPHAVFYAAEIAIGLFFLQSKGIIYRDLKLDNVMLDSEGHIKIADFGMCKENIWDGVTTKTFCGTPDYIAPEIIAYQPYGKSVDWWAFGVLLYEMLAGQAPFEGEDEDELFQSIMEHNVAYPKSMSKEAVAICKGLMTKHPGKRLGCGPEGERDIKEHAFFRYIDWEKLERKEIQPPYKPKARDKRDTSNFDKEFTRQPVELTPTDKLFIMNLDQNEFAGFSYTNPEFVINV

peptide I: 15-residue peptide homologous to a sequence in the sixth WD-40 repeat of RACK1; PKC antagonist (KGDYEKILVALCGGN)
effect on insulin (hormone)-induced βPKC translocation (βPKC [1]; 60 minutes after addition of insulin): inhibited insulin-induced βPKC translocation | βPKC distribution / translocation in the absence of insulin treatment (βPKC [1]; homogenate 60 minutes after microinjection): did not affect βPKC distribution | effect on NE-induced translocation of PKC isozymes (δ and εPKC isozymes; norepinephrine 2 μM): inhibited | degradation of δ and εPKC isozymes (δ and εPKC isozymes): nor does it induce PKC degradation | translocation / distribution of δ and εPKC isozymes in the absence of hormone stimulation (δ and εPKC isozymes): does not affect PKC distribution | nicking of βPKC by Arg-C (78 kDa fragment) at low concentrations of activators (βPKC [2]): nicking of βPKC did not occur
